The subject of data set [1] is cerebellar granule cells (CGC). In words: Antiapoptotic capacity (rescue) in cerebellar granule cells induced into apoptosis by cytosine arabinoside (CGC assay). As to conditions: for Rescue by Amino Acids and Esters in the CGC Assay, 10^−6 M / Rescue by Amino Nitriles in the CGC Assay, 10^−6 M / Rescue by Amino Phosphonic Acids in the CGC Assay, 10^−6 M: compound 10^−6 M; for Rescue by Amino Acids and Esters in the CGC Assay, 10^−6 M / Rescue by Amino Acids and Esters in the CGC Assay, 10^−9 M / Rescue by Amino Acids and Esters in the CGC Assay, 10^−12 M / Rescue by Amino Nitriles in the CGC Assay, 10^−6 M / Rescue by Amino Nitriles in the CGC Assay, 10^−9 M / Rescue by Amino Nitriles in the CGC Assay, 10^−12 M / Rescue by Amino Phosphonic Acids in the CGC Assay, 10^−6 M / Rescue by Amino Phosphonic Acids in the CGC Assay, 10^−9 M / Rescue by Amino Phosphonic Acids in the CGC Assay, 10^−12 M: AraC 300 uM-induced apoptosis, 24 hours; for Rescue by Amino Acids and Esters in the CGC Assay, 10^−9 M / Rescue by Amino Nitriles in the CGC Assay, 10^−9 M / Rescue by Amino Phosphonic Acids in the CGC Assay, 10^−9 M: compound 10^−9 M; for Rescue by Amino Acids and Esters in the CGC Assay, 10^−12 M / Rescue by Amino Nitriles in the CGC Assay, 10^−12 M / Rescue by Amino Phosphonic Acids in the CGC Assay, 10^−12 M: compound 10^−12 M. In kind it is cell-based, Wistar rat. From the text: In Vitro Protocol for Assessing the Antiapoptotic Capacity of Various Compounds in Cerebellar Granule Cells
Cultures of cerebellar granule cells (CGC) can be induced into apoptosis by the addition of a high concentration of cytosine arabinoside (AraC). It has been shown that this is a p53 dependent apoptosis. We have measured the antiapoptotic effect of some amino acids, amino esters, amino phosphonic acids, amino nitriles and amino tetrazoles using this system.
Cultures of CGC were obtained from 6-8 day old Wistar rat pups. Cultures were grown on glass in 35 mm petri dishes for three days and then used for experiments. Aliquots (20 ul) of drug solutions (AraC, anti-apoptotic drugs, drug vehicles) were added to the medium of the culture. 24 Hours later the cultures were fixed with FAM, and stained with bis-benzamide. Normal and apoptotic nuclei were counted to a total of 90-120 cells per culture.

Where [2] appears, read: overall over 10^−6, 10^−9, 10^−12 M.

Data on 25 compounds can be found in patent US6984754B1, “Aliphatic amino carboxylic and amino phosphonic acids amino nitriles and amino tetrazoles as cellular rescue agents” (University of Saskatchewan Technologies Inc., priority 1998, dated 2006).

Counter-ions that a name gives are not always drawn.

As to `CCOC(=O)CNC(C)C` (as salt: hydrochloride), the melting point (usually the temperature of the solid-liquid transition) lay within 120 to 121 °C.
The same measure, in the same setting: in the case of `CCCCC[C@H](C)NCCC(=O)OC` (stereo in doubt) (as salt: hydrochloride) it was 89.5 to 90.5 °C.
`CCCCCC(C)NCCC(=O)O` (stereo in doubt) (as salt: hydrochloride) [R-2-Heptyl (B-Alanines), (R)-3-(2-Heptylamino)propionic acid hydrochloride]: the melting point lay in the range of 57 to 58 °C.
On the same count and under the same terms, in the case of `CCCCCC(C)NCCC#N` (stereo in doubt) (as salt: hydrochloride) [R-2-Heptyl (Propionitriles), (R)-3-(2-Heptylamino)propionitrile hydrochloride] it was 134 to 135 °C; in that of `CCCCCC(C)N(C)CCC#N` (stereo in doubt) (as salt: hydrochloride) [R-2-Heptyl-N-methyl (Propionitriles), (R)-3-(2-Heptylmethylamino)propionitrile hydrochloride], 98 to 98.5 °C.
For `CCCCCC(C)NCC#N` (stereo in doubt) (as salt: hydrochloride) [R-2-heptyl (Acetonitriles), (R)-2-(2-Heptylamino)acetonitrile hydrochloride], the melting point fell in the range of 152 to 153 °C.
Turning to `CCCCCCNCCC(=O)O` [1-Hexyl (B-Alanines), 3(1-Hexylamino)propionic acid], the melting point was 95 to 97 °C. Also, in data set [1], the “Rescue by Amino Acids and Esters in the CGC Assay, 10^−6 M” value is on record as “R”; the “Rescue by Amino Acids and Esters in the CGC Assay, 10^−9 M” value is recorded as “R”; the “Rescue by Amino Acids and Esters in the CGC Assay, 10^−12 M” value is on record as “R”. The “Rescue by Amino Acids and Esters in the CGC Assay, Rescue (overall yes/no)” value in data set [1] (setting [2]) is “yes”.
Compound `CCCCCCNCCC#N.Cl` [1-Hexyl (Propionitriles), 3-(1-Hexylamino)propionitrile hydrochloride] gave a melting point of 188 to 189 °C. In addition, in data set [1] (setting [2]), the “Rescue by Amino Nitriles in the CGC Assay, Rescue (overall yes/no)” value (“Rescue by Amino Nitriles … (overall yes/no)” for short) is “no”.
On to `CC(C)NCC#N.Cl` [2-Propyl (Acetonitriles), 2-(2-Propylamino)acetonitrile hydrochloride], for which the melting point lay in the range of 166 to 167 °C. In addition, in data set [1], the “Rescue by Amino Nitriles in the CGC Assay, 10^−6 M” value is on record as “R”; the “Rescue by Amino Nitriles in the CGC Assay, 10^−9 M” value (from here on “Rescue by Amino Nitriles … 10^−9 M”) is “R”; the “Rescue by Amino Nitriles in the CGC Assay, 10^−12 M” value is “R”. In addition, the “Rescue by Amino Nitriles … (overall yes/no)” value in data set [1] (setting [2]) is listed as “yes”.
`CC(C)NCCP(=O)(O)O.Cl` [2-Propyl (Amino Phosphonic Acids), 2-(2-Propylamino)ethanephosphonic acid hydrochloride] gave a melting point of 164 to 166 °C. In data set [1], the “Rescue by Amino Phosphonic Acids in the CGC Assay, 10^−6 M” value is listed as “R”; the “Rescue by Amino Phosphonic Acids in the CGC Assay, 10^−9 M” value was “R”; the “Rescue by Amino Phosphonic Acids in the CGC Assay, 10^−12 M” value was “R”. In data set [1] (setting [2]), the “Rescue by Amino Phosphonic Acids in the CGC Assay, Rescue (overall yes/no)” value was “yes”.
`CC(C)NCCC(=O)O.Cl` [2-Propyl (B-Alanines), 3-(2-Propylamino)propionic acid hydrochloride] displayed a melting point of 154 to 155 °C. In data set [1], the “Rescue by Amino Acids and Esters in the CGC Assay, 10^−9 M” value was “R”; the “Rescue by Amino Acids and Esters in the CGC Assay, 10^−12 M” value is given as “R”. Also, the “Rescue by Amino Acids and Esters in the CGC Assay, Rescue (overall yes/no)” value in data set [1] (setting [2]) is “yes”.
On to `CC(C)N(C)CCC#N.Cl` [2-Propyl-N-methyl (Propionitriles), 3-(2-Propylmethylamino)propionitrile hydrochloride], for which the melting point lay within 121 to 121.5 °C. Further, the “Rescue by Amino Nitriles … (overall yes/no)” value in data set [1] (setting [2]) is “no”.
Turning to `CCC(CC)NCCC#N.Cl` [3-Pentyl (Propionitriles), 3-(3-Pentylamino)propionitrile hydrochloride], the melting point was 118.5 to 119.5 °C. In data set [1], the “Rescue by Amino Nitriles in the CGC Assay, 10^−6 M” value is recorded as “R” and the “Rescue by Amino Nitriles … 10^−9 M” value is reported as “R”. Also, the “Rescue by Amino Nitriles … (overall yes/no)” value in data set [1] (setting [2]) is listed as “yes”.
Consider `CCCCC[C@@H](C)NCCP(=O)(O)O.Cl` [R-2-Heptyl (Amino Phosphonic Acids), (R)-2-(2-Heptylamino)ethanephosphonic acid hydrochloride], for which the “Rescue by Amino Phosphonic Acids in the CGC Assay, Rescue (overall yes/no)” value in data set [1] (setting [2]) is reported as “yes*”.
For the compound `CCCCC[C@@H](C)N(C)CCC(=O)OC.Cl` [R-2-Heptyl-N-methyl (B-Alaninates), (R)-Methyl 3-(2-heptylmethylamino)propionate hydrochloride], in data set [1], the “Rescue by Amino Acids and Esters in the CGC Assay, 10^−6 M” value was “R”; the “Rescue by Amino Acids and Esters in the CGC Assay, 10^−9 M” value was “R”; the “Rescue by Amino Acids and Esters in the CGC Assay, 10^−12 M” value is on record as “R”. Moreover, the “Rescue by Amino Acids and Esters in the CGC Assay, Rescue (overall yes/no)” value in data set [1] (setting [2]) is “yes”.
As for `CCCCC[C@@H](C)N(C)CCC(=O)O.Cl` [R-2-Heptyl-N-methyl (B-Alanines), (R)-3-(2-Heptylmethylamino)propionic acid hydrochloride], in data set [1], the “Rescue by Amino Acids and Esters in the CGC Assay, 10^−6 M” value is “R”; the “Rescue by Amino Acids and Esters in the CGC Assay, 10^−9 M” value is given as “R”; the “Rescue by Amino Acids and Esters in the CGC Assay, 10^−12 M” value is “R”. Besides, the “Rescue by Amino Acids and Esters in the CGC Assay, Rescue (overall yes/no)” value in data set [1] (setting [2]) is “yes”.
`CCC[C@@H](C)NCC#N` [R-2-Pentyl (Acetonitriles), (R)-2-(2-Pentylamino)acetonitrile]: the “Rescue by Amino Nitriles … 10^−9 M” value in data set [1] is “R”. Also, the “Rescue by Amino Nitriles … (overall yes/no)” value in data set [1] (setting [2]) is on record as “yes”.
With `CCC[C@@H](C)NCCP(=O)(O)O` [R-2-Pentyl (Amino Phosphonic Acids), (R)-2-(2-Pentylamino)ethanephosphonic acid], the “Rescue by Amino Phosphonic Acids in the CGC Assay, 10^−6 M” value in data set [1] is recorded as “R”. In addition, the “Rescue by Amino Phosphonic Acids in the CGC Assay, Rescue (overall yes/no)” value in data set [1] (setting [2]) is “yes”.
Turning to `CCCCC[C@H](C)NCC#N.Cl` [S-2-Heptyl (Acetonitriles), (S)-2-(2-Heptylamino)acetonitrile hydrochloride], the melting point came to 140 °C. Further, in data set [1], the “Rescue by Amino Nitriles … 10^−9 M” value was “R” and the “Rescue by Amino Nitriles in the CGC Assay, 10^−12 M” value was “R”. Further, the “Rescue by Amino Nitriles … (overall yes/no)” value in data set [1] (setting [2]) is “yes”.
Consider `CCCCC[C@H](C)NCCP(=O)(O)O.Cl` [S-2-Heptyl (Amino Phosphonic Acids), (S)-2-(2-Heptylamino)ethanephosphonic acid hydrochloride], for which, in data set [1], the “Rescue by Amino Phosphonic Acids in the CGC Assay, 10^−9 M” value is “R” and the “Rescue by Amino Phosphonic Acids in the CGC Assay, 10^−12 M” value is reported as “R”. In addition, the “Rescue by Amino Phosphonic Acids in the CGC Assay, Rescue (overall yes/no)” value in data set [1] (setting [2]) is on record as “yes”.
The compound `CCCCC[C@H](C)NCCC(=O)O.Cl` [S-2-Heptyl (B-Alanines), (S)-3-(2-Heptylamino)propionic acid hydrochloride] returned a melting point of 56 to 58 °C. In addition, the “Rescue by Amino Acids and Esters in the CGC Assay, Rescue (overall yes/no)” value in data set [1] (setting [2]) is listed as “no”.
As to `CCCCC[C@H](C)NCC(=O)O.Cl` [S-2-Heptyl (Glycines), (S)-2-(2-Heptylamino)acetic acid hydrochloride], in data set [1], the “Rescue by Amino Acids and Esters in the CGC Assay, 10^−6 M” value is “R”; the “Rescue by Amino Acids and Esters in the CGC Assay, 10^−9 M” value is given as “R”; the “Rescue by Amino Acids and Esters in the CGC Assay, 10^−12 M” value is “R”. Further, in data set [1] (setting [2]), the “Rescue by Amino Acids and Esters in the CGC Assay, Rescue (overall yes/no)” value was “yes”.
With `CCCCC[C@H](C)NCCC#N.Cl` [S-2-heptyl (Propionitriles), (S)-3-(2-Heptylamino)propionitrile hydrochloride], the melting point is 133 to 134 °C. The “Rescue by Amino Nitriles … (overall yes/no)” value in data set [1] (setting [2]) was “no”.
`CCC(C)(C)NCCC#N.Cl` [tert-Amyl (Propionitriles), 3-(t-Amylamino)propionitrile hydrochloride] returned a melting point of 199 to 200 °C. Further, in data set [1] (setting [2]), the “Rescue by Amino Nitriles … (overall yes/no)” value was “no”.
Take “(S)-2-(2-Heptylamino)ethane-5-tetrazole hydrochloride [S-2-Heptyl (Amino Tetrazoles)]”: the “Rescue by Amino Tetrazoles in the CGC Assay, Rescue (overall yes/no)” value in data set [1] (setting [2]) was “no”.
